Data published in patent US6926905B2, “Liposomak compositions and methods of preparation” (Yissum Research Development Company of the Hebrew …, priority 1998, dated 2005).
Where a name gives a salt, the structure may show the parent alone.

Columns and labels:
Male Swiss-Webster mice [1] = settings: mouse, in vivo
[2] = Tissue BUP post-administration: drug remaining at the site of injection (HPLC of excised tissue); assay type: in vivo; settings: four hours after injection, mice, subcutaneous
Protocol: In a separate group of mice, the amount of drug remaining at the site of injection after administration of 0.5% and 3.5% liposomal BUP (formulation 3) or 0.5% free BUP was determined. Three animals were sacrificed at 0, 0.25, 0.5, 1, 2, 4, and 8 hours after injections of all drug formulations and also at 16, 24, 48 and 96 hours after injection of the liposomal formulations. After sacrifice, a 1-cm2 circular tissue section including the entire area of injection, and extending to the peritoneum, was excised. The tissue was homogenized in 1 ml of isopropanol for 1 min, and then centrifuged at 16,000×G (Eppendorf Centrifuge 5417C, Engelsdorf, Germany). The supernatant was diluted 1:100 in isopropanol, and BUP concentration was determined using HPLC. In vivo release kinetics were done in triplicate. Results are presented in FIG. 2, where the absolute amounts remaining are expressed as mean±SD.

Male Swiss-Webster mice [3] = test: Analgesic efficacy: sensory block, vocalization response to cutaneous electrical stimulation after subcutaneous injection; assay type: in vivo; settings: 8 mice
Protocol: All experiments were approved by the Institutional Animal Care and Use Committee. Male Swiss-Webster mice weighing 26+3 g (mean+SD) were used. Animals had free access to food and water, and were maintained on 12-hour dark-light cycle. Prior to testing, the hair overlying the abdomen was shaved. Analgesia was assessed using response to cutaneous electrical stimulation. A current generator (model S48, Grass Instruments, Quincy, Mass.) coupled to a constant current unit (model PSIU6F, Grass Instruments, Quincy, Mass.) was used. The current was delivered to the skin surface by touching it gently with two electrodes fashioned from #25 g needles. The vocalization threshold (the current required to produce a vocalization response) was assessed prior to injection of study solutions. […] To determine analgesic duration, mice were injected with liposomal BUP compositions having 0.5 wt % and 3.5 wt % bupivacaine, respectively, formed by dilution (as necessary of formulation 3, above. Free BUP (0.5%), hyperosmotic saline (580 mM), or drug-free liposomes were used as controls. For all groups, […] of test solution was injected subcutaneously using a #25 g needle in 8 mice. After injection, sensory block was assessed at 5, 15, 30 minutes and then at 1, 1.5, 2, 3, 4.5, 6, 9, 12, 14, 16, 17, and 19 hours. Failure to vocalize in response to stimulation with threshold current was taken as analgesia. […]

CCCCN1CCCCC1C(=O)Nc1c(C)cccc1C (centres unmarked) [0.5% free BUP, Bupivacaine hydrochloride]
systemic toxic effects (Male Swiss-Webster mice [1]): produced toxicity
amount remaining at the site [2]: 8 mg
injected dose remaining at the site [2]: 1%
time at which analgesia was exhibited (Male Swiss-Webster mice [3]): 30 min
time at which analgesia was not detected (regressed in all animals) (Male Swiss-Webster mice [3]): 2 h
